Laboratory results as given in the NIST ThermoML archive (doi:10.1016/j.fluid.2010.03.010).

Conditions: Liquid, Vibrating tube method

CCCCn1cc[n+](C)c1.N#CN=C=[N-] [1-butyl-3-methylimidazolium dicyanamide]
Conditions | mass density [kg/m3]
293.15 K, 100 kPa | 1064.4
293.15 K, 101.33 kPa | 1063.73
293.15 K, 250 kPa | 1064.4
293.15 K, 500 kPa | 1064.5
293.15 K, 1000 kPa | 1064.7
293.15 K, 2000 kPa | 1065.1
293.15 K, 4990 kPa | 1066.2
293.15 K, 10010 kPa | 1068.2
293.15 K, 15000 kPa | 1070
293.15 K, 20000 kPa | 1071.9
293.15 K, 25000 kPa | 1073.6
293.15 K, 30000 kPa | 1075.4
293.15 K, 35000 kPa | 1077.1
293.15 K, 40000 kPa | 1078.9
293.15 K, 45000 kPa | 1080.5
293.15 K, 50000 kPa | 1082.2
293.15 K, 55000 kPa | 1083.8
293.15 K, 60000 kPa | 1085.4
294.15 K, 101.33 kPa | 1063.09
295.15 K, 101.33 kPa | 1062.45
296.15 K, 101.33 kPa | 1061.81
297.15 K, 101.33 kPa | 1061.17
298.15 K, 101.33 kPa | 1060.53
299.15 K, 101.33 kPa | 1059.89
300.15 K, 101.33 kPa | 1059.26
301.15 K, 101.33 kPa | 1058.62
302.15 K, 101.33 kPa | 1057.99
303.15 K, 100 kPa | 1057.9
303.15 K, 101.33 kPa | 1057.35
303.15 K, 250 kPa | 1057.9
303.15 K, 500 kPa | 1058
303.15 K, 1000 kPa | 1058.2
303.15 K, 2000 kPa | 1058.6
303.15 K, 4990 kPa | 1059.8
303.15 K, 10000 kPa | 1061.8
303.15 K, 14990 kPa | 1063.6
303.15 K, 20010 kPa | 1065.5
303.15 K, 25000 kPa | 1067.4
303.15 K, 30000 kPa | 1069.2
303.15 K, 34990 kPa | 1070.9
303.15 K, 40000 kPa | 1072.7
303.15 K, 45000 kPa | 1074.4
303.15 K, 50000 kPa | 1076.1
303.15 K, 55000 kPa | 1077.8
303.15 K, 60000 kPa | 1079.4
304.15 K, 101.33 kPa | 1056.72
305.15 K, 101.33 kPa | 1056.09
306.15 K, 101.33 kPa | 1055.45
307.15 K, 101.33 kPa | 1054.82
308.15 K, 101.33 kPa | 1054.19
309.15 K, 101.33 kPa | 1053.56
310.15 K, 101.33 kPa | 1052.93
311.15 K, 101.33 kPa | 1052.31
312.15 K, 101.33 kPa | 1051.68
313.15 K, 100 kPa | 1051.5
313.15 K, 101.33 kPa | 1051.05
313.15 K, 250 kPa | 1051.5
313.15 K, 500 kPa | 1051.6
313.15 K, 1000 kPa | 1051.8
313.15 K, 2000 kPa | 1052.3
313.15 K, 4990 kPa | 1053.4
313.15 K, 10000 kPa | 1055.5
313.15 K, 14990 kPa | 1057.4
313.15 K, 20010 kPa | 1059.4
313.15 K, 25000 kPa | 1061.2
313.15 K, 30000 kPa | 1063.1
313.15 K, 35000 kPa | 1064.9
313.15 K, 40010 kPa | 1066.7
313.15 K, 45000 kPa | 1068.4
313.15 K, 50000 kPa | 1070.2
313.15 K, 55010 kPa | 1071.9
313.15 K, 60000 kPa | 1073.6
314.15 K, 101.33 kPa | 1050.43
315.15 K, 101.33 kPa | 1049.8
316.15 K, 101.33 kPa | 1049.18
317.15 K, 101.33 kPa | 1048.56
318.15 K, 101.33 kPa | 1047.94
319.15 K, 101.33 kPa | 1047.32
320.15 K, 101.33 kPa | 1046.7
321.15 K, 101.33 kPa | 1046.08
322.15 K, 101.33 kPa | 1045.46
323.15 K, 100 kPa | 1045.2
323.15 K, 101.33 kPa | 1044.84
323.15 K, 250 kPa | 1045.3
323.15 K, 500 kPa | 1045.4
323.15 K, 1000 kPa | 1045.6
323.15 K, 2010 kPa | 1046
323.15 K, 4990 kPa | 1047.3
323.15 K, 10010 kPa | 1049.3
323.15 K, 14990 kPa | 1051.3
323.15 K, 20010 kPa | 1053.3
323.15 K, 25000 kPa | 1055.2
323.15 K, 30010 kPa | 1057.1
323.15 K, 34990 kPa | 1058.9
323.15 K, 40000 kPa | 1060.8
323.15 K, 45000 kPa | 1062.6
323.15 K, 50000 kPa | 1064.4
323.15 K, 55000 kPa | 1066.1
323.15 K, 60000 kPa | 1067.8
324.15 K, 101.33 kPa | 1044.22
325.15 K, 101.33 kPa | 1043.61
326.15 K, 101.33 kPa | 1042.99
327.15 K, 101.33 kPa | 1042.37
328.15 K, 101.33 kPa | 1041.76
329.15 K, 101.33 kPa | 1041.14
330.15 K, 101.33 kPa | 1040.53
331.15 K, 101.33 kPa | 1039.92
332.15 K, 101.33 kPa | 1039.3
333.15 K, 100 kPa | 1039
333.15 K, 101.33 kPa | 1038.69
333.15 K, 250 kPa | 1039.1
333.15 K, 500 kPa | 1039.2
333.15 K, 1000 kPa | 1039.4
333.15 K, 2000 kPa | 1039.9
333.15 K, 4990 kPa | 1041.1
333.15 K, 10000 kPa | 1043.2
333.15 K, 15000 kPa | 1045.2
333.15 K, 20000 kPa | 1047.3
333.15 K, 25000 kPa | 1049.2
333.15 K, 30000 kPa | 1051.3
